Biological target: T1, PRKCB1 (PKC beta I) (Homo sapiens, UniProt P05771)
T1 construct: purchased Thermo Fisher Scientific (Life Technologies) SelectScreen
Assay: SelectScreen Z'LYTE
Type: biochemical
In short: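 SelectScreen broad panel; activity (Z'LYTE, Adapta) plus binding formats. ATP: Km app for CSF1R Z'LYTE; 10 for CAMK1 Adapta. Readout = % per kinase.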

T1 sequence (P05771 whole entry): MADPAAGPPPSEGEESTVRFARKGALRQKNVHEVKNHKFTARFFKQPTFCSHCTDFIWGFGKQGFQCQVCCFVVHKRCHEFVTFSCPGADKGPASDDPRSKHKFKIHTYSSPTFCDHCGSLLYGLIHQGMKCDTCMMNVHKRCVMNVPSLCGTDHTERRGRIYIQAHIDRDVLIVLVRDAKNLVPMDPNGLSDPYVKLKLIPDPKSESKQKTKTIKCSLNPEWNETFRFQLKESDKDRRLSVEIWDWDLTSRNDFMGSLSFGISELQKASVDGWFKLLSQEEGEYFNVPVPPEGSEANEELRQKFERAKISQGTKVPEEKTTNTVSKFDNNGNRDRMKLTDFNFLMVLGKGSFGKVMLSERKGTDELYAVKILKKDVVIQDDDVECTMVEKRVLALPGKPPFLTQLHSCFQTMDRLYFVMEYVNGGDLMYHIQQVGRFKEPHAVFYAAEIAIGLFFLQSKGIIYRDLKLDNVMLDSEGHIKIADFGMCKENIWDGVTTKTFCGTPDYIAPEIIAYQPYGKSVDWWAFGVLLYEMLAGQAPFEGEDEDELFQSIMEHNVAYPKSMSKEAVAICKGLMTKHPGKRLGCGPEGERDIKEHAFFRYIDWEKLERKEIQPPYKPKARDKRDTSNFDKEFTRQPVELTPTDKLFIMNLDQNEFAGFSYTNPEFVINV

CN(C(=O)CN1CCOCC1)c1ccc2sc3c(-c4cccc5c(=O)cc(N6CC7CCC(C6)O7)oc45)cccc3c2c1 [NU5455]
inhibition at 1 µM: -0.7%
